Test results reported in patent publication US20230365590A1, “BIPHENYL COMPOUND AS IMMUNOMODULATOR, PREPARATION METHOD THEREFOR AND APPLICATION THEREOF” (SHENZHEN CHIPSCREEN BIOSCIENCES CO., LTD., priority 2020, published 2023).

What was measured:
[1] = molecular target: CD80/PD-L1 binding (recombinant human His-CD80 protein and PD-L1-Fc fusion protein) (Homo sapiens (Human), UniProt Q9NZQ7); assay: In vitro inhibitory activity against CD80/PD-L1 binding (HTRF); details: read-out: IC50 for inhibiting CD80/PD-L1 binding in vitro
Source text: In addition to PD-1, PD-L1 can also play an immune inhibition role by binding to CD80. Similarly, in vitro CD80/PD-L1 binding or binding inhibition test can also be conducted by homogeneous time-resolved fluorescence (HTRF). When the anti-hFc-Eu^3+ antibody and the anti-His-XL665 antibody are used to bind to the hFC tag fused to PD-L1 and the His tag fused to CD80 respectively, and after excitation with 320 nm laser, energy can be transferred from Eu element to XL665 fluorescein due to the binding of PD-L1 and CD80 to excite the XL665 fluorescein to emit light. When an inhibitor for inhibiting interaction of PD-L1 and CD80 is added, the binding of PD-L1 and CD80 is destroyed, causing a long distance between Eu and XL665. As a result, the energy cannot be transferred, and the XL665 fluorescein will not be excited.
(§1) The recombinant human CD80 protein with His tag (His-CD80 protein, Cat #: 10698-H08H-100) and the recombinant human PD-L1-Fc fusion protein (PD-L1-Fc fusion protein, Cat #: 10084-H02H-100) were purchased from Sino Biological Inc., anti-hFc-Eu^3+ antibody and anti-His-XL665 antibody were purchased from Cisbio, and other related reagents such as a diluent buffer (Diluent buffer 5 (Cat #: 62DL5DDC) and a detection buffer (PPI-European detection buffer, Cat #: 61DB9RDF) were purchased from Cisbio. Fluorescence detector Tecan (Spark 10M) was purchased from Tecan Company in Switzerland.
The experiment process was carried out according to the flow required in the operating manual of the test reagent (Invitrogen). The process was as follows: • (1) Experiment preparation: A test compound was diluted to different concentration gradients with the dilution buffer (the highest final concentration in a 20 μL final reaction system was 10 μM). The His-CD80 protein was diluted to 800 nM (the final concentration in the 20 final reaction system was 100 nM). The PD-L1-Fc fusion protein was diluted to 16 nM (the final concentration was 2 nM). The anti-His-XL665 antibody and the anti-hFc-Eu^3+antibody were diluted 20 times and 100 times respectively with the detection buffer according to reagent requirements. • (2) First, 5 μL of the test compound, 2.5 μL of the His-CD80 fusion protein and 2.5 μL of the […] fusion protein solution were well mixed and incubated at room temperature for 15 min; then, 5 μL of the anti-His-XL665 antibody and 5 μL of the anti-hFc-Eu^3+antibody were added to the system and further incubated for 3 h before test. • (3) During the test reaction, control groups were set, including a 0% inhibitory positive control without adding the test compound and a 100% inhibitory negative control without adding the CD80 protein. All tests were conducted by use of multiple holes. • (4) The fluorescence detector Tecan (Spark 10M) was used to detect the fluorescence signal of each hole. The excitation wavelength was 320 nm, and the emission wavelengths for detection were 620 nm and 665 nm, respectively. The strength of CD80/PD-L1 binding refers to a fluorescence signal ratio Em665/Em620. • (5) Calculation formula of binding inhibition rate of test compound: Inhibition rate (%)=[1−(fluorescence signal ratio of detected hole−fluorescence signal ratio of 100% inhibition negative control)]/(fluorescence signal ratio of 0% inhibition positive control — fluorescence signal ratio of 100% inhibition negative control)×100%. The 50% inhibition concentration (IC50) was calculated after the CD80/PD-L1 binding inhibition rates of the test compound with different concentration gradients were calculated respectively.

[2] = molecular target: PD-1/PD-L1 binding (recombinant human PD-L1-Fc fusion protein and His-PD-1 protein) (Homo sapiens (Human), UniProt Q9NZQ7); assay: In vitro inhibitory activity against PD-1/PD-L1 binding (HTRF); details: read-out: IC50 for inhibiting PD-1/PD-L1 binding in vitro
Source text: Homogeneous time resolved fluorescence method (HTRF): This method uses the recombinant human PD-L1 protein fused with hFc tag and the recombinant human PD-1 protein fused with His tag, which are interacting ligands and receptors. When the anti-hFc antibody containing chelated Eu tag and the anti-His antibody containing XL665 fluorescein tag are used to bind with the above two corresponding tags respectively and are excited by 320 nm laser, energy can be transferred from Eu element to XL665 fluorescein due to ligand receptor binding, and the XL665 fluorescein is excited to emit light with a wavelength of 665 nm. When an inhibitor for inhibiting interaction of PD-L1 and PD-1 is added, the binding of the ligand and the receptor is destroyed, causing a long distance between Eu and XL665. As a result, the energy cannot be transferred, and the XL665 fluorescein will not be excited.
as §1, with “Experimental Materials and Devices The” for “The”, “PD-1” for “CD80”, “(His-PD-1” for “(His-CD80”, “10377-H08H-50)” for “10698-H08H-100)”, “(diluent” for “(Diluent”
The experiment process was carried out according to the flow required in the operating manual of the test reagent. The process was as follows: • (1) Experiment preparation: A test compound was diluted to different concentration gradients with the dilution buffer (the highest final concentration in a 20 μL final reaction system was 10 μM). The His-PD-1 protein was diluted to 800 nM (the final concentration in the 20 final reaction system was 100 nM). The PD-L1-Fc fusion protein was diluted to 16 nM (the final concentration was 2 nM). […] All tests were conducted by use of multiple holes. • (4) The fluorescence detector Tecan (Spark 10M) was used to detect the fluorescence signal of each hole. The excitation wavelength was 320 nm, and the emission wavelengths for detection were 620 nm and 665 nm, respectively. The strength of PD-1/PD-L1 binding refers to a fluorescence signal ratio Em665/Em620. • (5) Calculation formula of binding inhibition rate of test compound: Inhibition rate (%)=[1−(fluorescence signal ratio of detected hole−fluorescence signal ratio of 100% inhibition negative control)]/(fluorescence signal ratio of 0% inhibition positive control−fluorescence signal ratio of 100% inhibition negative control)×100%. The 50% inhibition concentration (IC50) was calculated after the PD-1/PD-L1 binding inhibition rates of the test compound with different concentration gradients were calculated respectively.

Sequence of PD-1/PD-L1 binding (recombinant human PD-L1-Fc fusion protein and His-PD-1 protein) (Q9NZQ7 19-239): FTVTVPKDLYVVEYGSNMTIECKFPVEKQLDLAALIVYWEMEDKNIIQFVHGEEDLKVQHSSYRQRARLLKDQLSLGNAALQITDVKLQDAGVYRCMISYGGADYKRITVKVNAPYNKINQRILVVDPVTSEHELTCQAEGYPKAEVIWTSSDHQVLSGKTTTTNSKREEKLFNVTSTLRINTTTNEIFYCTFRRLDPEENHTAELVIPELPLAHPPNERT
Sequence of CD80/PD-L1 binding (recombinant human His-CD80 protein and PD-L1-Fc fusion protein) (Q9NZQ7 19-239): as above

Compound	IC50 [1] [nM]	IC50 [2] [nM]
Cn1c(C(=O)Nc2cccc(-c3cccc(NC(=O)c4nc5c(n4C)CCN(CCC46CCC(C(=O)O)(CC4)C6)C5)c3Cl)c2Cl)nc2c1CCN(CCC13CCC(COC(F)F)(CC1)C3)C2 [Compound I-7, 4-(2-(2-((2,2′-dichloro-3′-(5-(2-(4-((difluoromethoxy)methyl)bicyclo[2.2.1]heptan-1-yl)ethyl)-1-methyl-4,5,6,7-tetrahydro-1H-imidazo[4,5-c]pyridine-2-carboxamido)-[1,1′-biphenyl]-3-yl)carbamoyl)-1-methyl-1,4,6,7-tetrahydro-5H-imidazo[4,5-c]pyridin-5-yl)ethyl)bicyclo[2.2.1]heptane-1-carboxylic acid]	0.33	0.29
COCC12CCC(CCCN3CCc4c(nc(C(=O)Nc5cccc(-c6cccc(NC(=O)c7nc8c(n7C)CCN(CCC79CCC(C(=O)O)(CC7)C9)C8)c6Cl)c5C)n4C)C3)(CC1)C2 [Compound I-2, 4-(2-(2-((2-chloro-3′-(5-(3-(4-(methoxymethyl)bicyclo[2.2.1]heptan-1-yl)propyl)-1-methyl-4,5,6,7-tetrahydro-1H-imidazo[4,5-c]pyridine-2-carboxamido)-2′-methyl-[1,1′-biphenyl]-3-yl)carbamoyl)-1-methyl-1,4,6,7-tetrahydro-5H-imidazo[4,5-c]pyridin-5-yl)ethyl)bicyclo[2.2.1]heptane-1-carboxylic acid]	0.79	1.32
COCC12CCC(CCN3CCc4c(nc(C(=O)Nc5cccc(-c6cccc(NC(=O)c7nc8c(n7C)CCN(CCC79CCC(C(=O)O)(CC7)C9)C8)c6Cl)c5C#N)n4C)C3)(CC1)C2 [Compound I-11, 4-(2-(2-((2-chloro-2′-cyano-3′-(5-(2-(4-(methoxymethyl)bicyclo[2.2.1]heptan-1-yl)ethyl)-1-methyl-4,5,6,7-tetrahydro-1H-imidazo[4,5-c]pyridine-2-carboxamido)-[1,1′-biphenyl]-3-yl)carbamoyl)-1-methyl-1,4,6,7-tetrahydro-5H-imidazo[4,5-c]pyridin-5-yl)ethyl)bicyclo[2.2.1]heptane-1-carboxylic acid]	1.43	1.94

Next, values leading:

IC50 [1] [nM]	IC50 [2] [nM]	Compound
5.53	4.62	Cn1c(C(=O)Nc2cccc(-c3cccc(NC(=O)c4nc5c(n4C)CCN(CC46CCC(C(=O)O)(CC4)C6)C5)c3Cl)c2Cl)nc2c1CCN(CCO)C2 [Example 180]
1.64	2.46	COCC12CCC(CCN3CCc4c(nc(C(=O)Nc5cccc(-c6cccc(NC(=O)c7nc8c(n7C)CCN(CC79CCC(C(=O)O)(CC7)C9)C8)c6Cl)c5C)n4C)C3)(CC1)C2 [Compound I-12, 4-((2-((2-chloro-3′-(5-(2-(4-(methoxymethyl)bicyclo[2.2.1]heptan-1-yl)ethyl)-1-methyl-4,5,6,7-tetrahydro-1H-imidazo[4,5-c]pyridine-2-carboxamido)-2′-methyl-[1,1′-biphenyl]-3-yl)carbamoyl)-1-methyl-1,4,6,7-tetrahydro-5H-imidazo[4,5-c]pyridin-5-yl)methyl)bicyclo[2.2.1]heptane-1-carboxylic acid]
